Patent US11590154B2, “Triple antibiotic fixed-dose combination products, dosing regimen, methods, and kits for treating pulmonary non-tuberculosis mycobacterial infections” (priority 2020, dated 2023)
Entries after “also recorded” stand apart in the source; their conditions may differ. Like-named read-outs stand apart in the source and are kept apart here.

Assays:
M. avium 104 biofilm = experiment: In vitro biofilm model of infection; type: cell-based, Mycobacterium avium subsp. hominissuis; conditions: mean ± SD; CLR 1.9-4.3 μg/mL, RFB 0.04 μg/mL, CFZ 0.0005 μg/mL
NTM = conditions: mouse models of systemic and lung infection; preclinical literature; cited from earlier work
MAC bacteria = type: cell-based, Mycobacterium avium complex; conditions: 2×MIC; starting inoculum 5.5 log10 CFU/ml
Method: In vitro, efficacy was studied in static time-kill kinetics assays (at 2×minimum inhibitory concentration [MIC]), intended to mirror a desired peak serum concentration for all three antibiotics using an established assay. All experiments were performed with a starting inoculum of 5.5 log10 CFU/ml MAC bacteria, higher than the bacterial load expected in the airway secretions of patients with mild nodular-bronchiectatic disease due to MAC.

[1] = cited from earlier work; for airway concentration relative to plasma (ELF:plasma ratio as percent): Dheda et al. 2018
[2] = Concentration vs. QTcF analysis of MAP Study data (linear mixed-effects model); type: in vivo, human
Method: A concentration vs. QTcF analysis was performed on a subset of data from the MAP Study where the PK sample was drawn within 1 hour of ECG extraction. The rationale for this window was based primarily on the assumption that at least for the rifabutin and clofazimine components, the long half-life would result in modest fluctuation of concentration over the dosing interval and thus the concentrations used in the analysis would enable fitting of a linear model suitable for prediction of the effect at the maximum concentration for each component (Cmax). Initially, a full model (including clarithromycin, 14-OH-clarithromycin, rifabutin, 25-O-desacetyl-rifabutin, and clofazimine) with random intercept and slopes per subject was fit and an unstructured covariance structure was used. […] Several models were then assessed with the best model retained, where only clofazimine concentration was retained as the drug component predictor of QT response.
The relationship between the individually observed clofazimine plasma concentrations and estimated placebo-adjusted ΔQTcF (i.e., ΔΔQTcF) is shown in FIG. 9. The solid line and the dotted line denotes the model-predicted mean ΔΔQTcF with 90% CI. The squares and circles denote the pairs of observed clofazimine plasma concentrations and estimated placebo-adjusted ΔQTcF by subjects for the RHB-104 and placebo treatment groups, respectively. […]

MAC [3] = experiment: MIC of the MAC strains used in the HFS-MAC studies; type: cell-based, Mycobacterium avium complex; conditions: Mycobacterium avium
Method: The MAC strain used in the HFS-MAC studies was ATCC strain 700898. The study center also had 5 well-characterized clinical strains that have undergone whole-genome sequencing and habituation to the HFS-MAC. Stock cultures of MAC were stored at −80° C. in Middlebrook 7H9 broth with 10% OADC and 10% glycerol. THP-1 monocytes were stored in liquid nitrogen and have been habituated for the HFS-MAC growth conditions.

[4] = system: intracellular MAC in THP-1 monocytes; experiment: Hollow fiber system model of MAC (HFS-MAC): microbial kill; type: cell-based, Mycobacterium avium complex; conditions: HF experiments
Method: The anti-mycobacterial effects of CLR, CFZ, and RFB was evaluated in the hollow fiber system model of MAC (HFS-MAC), which recapitulates the intrapulmonary concentrations of these antibiotics. The HFS-MAC allows for an assessment of the contribution of individual drug components in terms of anti-mycobacterial effects and enables exploration of potential synergy, additivity, or antagonism of different doses of drugs and combination regimens on the log-phase growth of intracellular MAC, for both microbial kill and resistance suppression.
A two-part investigation was conducted to assess the contribution of components of various FDC products comprising CLR, CFZ, and RFB in terms of depth and rate of MAC kill and suppression of the emergence of resistance. The anti-MAC activity of each antibiotic component was evaluated as one-drug alone; as two-drug combinations and the three-drug combination. For each combination (singlet, doublet or triplet), the drug concentrations were sampled from the HF fluid bathing MAC-infected cells. […] Anti-MAC activity was evaluated by kill slopes defined as the kill rate constant (and the half-life of kill [reciprocal of the kill rate constant]) as well as the maximum kill, defined as the maximum reduction in MAC CFUs and compared between the different antibiotic combinations.
MAC was grown into log-phase for 4 days, parallel with cultivation of THP-1 monocytes. The THP-1 cells were then infected with MAC overnight at a multiplicity of infection of 1:1. The THP-1 cells were washed to remove extracellular bacteria, and 20 mL of 1×10^6 (6.0 log10) cells/mL were inoculated into each HFS-MAC on Study Day 0. The peripheral compartment is the abluminal hollow fibers space that is also enclosed by the plastic, while the intraluminal space and flow path form the central compartment. […]

M. avium = experiment: MIC of antibiotics by broth microdilution, M. avium strains of Examples 3 and 4; type: cell-based, Mycobacterium avium subsp. hominissuis; conditions: 7H10 agar plates for tissue CFU counts
Method: Susceptibility testing was conducted using broth microdilution single and twofold dilutions as described in the literature. Suspensions were prepared by swabs on a growth plate with a sterile cotton swab, or were prepared in broth culture. The growth was transferred to a 4.5 mL of phosphate buffer solution (PBS) until the turbidity matched the density of a 0.5 McFarland standard. Suspensions were then vigorously mixed on a vortex mixer for 15 to 20 seconds. The final inoculum was prepared to a bacterial density of 10^5. The tube was inverted 8-10 times to mix the suspension.
Following both the four-week and eight-week treatment period, mice were sacrificed, and lungs and spleens were harvested for CFU counts in each tissue and compared to CFUs recovered in the baseline and vehicle-treated groups. Tissue samples were plated with and without antibiotic on 7H10 agar. Antibiotic plates were made with minimum inhibitory concentrations (MICs) of 8 μg/ml for clarithromycin, and 0.25, μg/ml for both rifabutin (RFB) and clofazimine (CFZ). Plates were made for each of clarithromycin (CLR) alone, clarithromycin plus either rifabutin (CLR+RFB) or clofazimine (CLR+CFZ) and the three-drug combination (CLR+RFB+CFZ). All plates were incubated in a microbiological incubator at 37° C. for 14 days.

MAC [5] = experiment: Lung histopathology of mice infected with MAC and treated for four and eight weeks; type: in vivo, Mycobacterium avium complex; conditions: 32 sections per group
From the text: Lung and Spleen Histopathology of Mice Infected with MAC and Treated with FDC Components Alone and in Combination for Four and Eight Weeks of Treatment
Each of the experimental group had eight cut examined from each lung (8×2 lungs=16×2 mice=32 sections). Lungs were normal and not showing any pathology at pre-infection.

[6] = 7-day mouse tolerability and PK study; conditions: for Cavg (clofazimine): AUCtlast/24 h; for AUC(0-t): AUCtlast (clofazimine); for AUC(0-t) / Cmax: mouse plasma; for Cmax: Cmax (clofazimine)
Method: Sixty (60) female mice were tested, 12 per treatment groups: […]

[7] = female, C57BL/6, mouse, plasma, po, 10 mg/kg, Day 1, CFZ 10 mg/kg alone, oral
[8] = female, C57BL/6, mouse, plasma, po, 10 mg/kg, Day 7, CFZ 10 mg/kg alone, oral once daily
[9] = female, C57BL/6, mouse, plasma, po, 30 mg/kg, Day 1, CFZ 30 mg/kg alone, oral
[10] = female, C57BL/6, mouse, plasma, po, 30 mg/kg, Day 7, CFZ 30 mg/kg alone, oral once daily
[11] = female, C57BL/6, mouse, plasma, po, 30 mg/kg, Day 7, CFZ 30 mg/kg with CLR 200 mg/kg and RFB 60 mg/kg, oral once daily

CC(C)/N=c1\cc2n(-c3ccc(Cl)cc3)c3ccccc3nc-2cc1Nc1ccc(Cl)cc1 [Clofazimine, clofazimine]
Colony Forming Unit Concentration, Four Days (M. avium 104 biofilm): 1.91 ± 0.6 × 10^7 CFU/mL
Colony Forming Unit Concentration, Seven Days (M. avium 104 biofilm): 1.42 ± 0.5 × 10^7 CFU/mL
Effective Dose (NTM): 20 mg/kg/day
activity as single drugs (MAC bacteria): bacteriostatic activity
airway concentration relative to plasma (ELF:plasma ratio as percent) [1]: approximately 0.19%
airway concentration relative to plasma (ELF:plasma ratio as percent) ([1]; listed as CFZ): approximately 0.2%
ELF:plasma ratio ([1]; epithelial lining fluid to total plasma/serum): 0.0019
half-life ([1]; human, in vivo): > 100 days
treatment effect-specific intercept ([2]; 90% CI 0.76 to 4.29): 2.52 ms
estimated population slope of the concentration-QTc relationship ([2]; clofazimine plasma concentration, RHB-104 MAP Study, 90% CI 0.0337 to 0.0410): 0.037 ms per ng/mL
MIC (MAC [3]; Clinical strain #1): 0.25 µg/mL
MIC (MAC [3]; Clinical strain #2): 0.25 µg/mL
MIC (MAC [3]; Clinical strain #3): 0.25 µg/mL
MIC (MAC [3]; Clinical strain #4): 0.25 µg/mL
MIC (MAC [3]; Clinical strain #5): 0.25 µg/mL
effect on CFUs / MAC killing, summary [4]: CFU counts increased
minimum inhibitory concentrations (MICs) used for antibiotic plates (M. avium): 0.25 µg/mL
Lung Histopathology Findings (MAC [5]): Mild diffuse congestion; also recorded: Minimal multi-focus congestion of lymphocytes and plasma cells; also recorded: Granulomas in multiple locations with mild number of bacteria; also recorded: Infiltrates into the bronchiolar walls
Cavg (clofazimine) ([6]; Day 7, CFZ 10 mg/kg alone): 223 ng/mL
Cavg (clofazimine) ([6]; Day 7, CFZ 30 mg/kg alone): 411 ng/mL
Cavg (clofazimine) ([6]; Day 7, CFZ 30 mg/kg with CLR 200 mg/kg and RFB 60 mg/kg): 829 ng/mL
Tmax ([6]; female, C57BL/6, mouse, in vivo, po, 10 mg/kg, tmax (clofazimine)): 4 h
AUC(0-t) ([6]; female, C57BL/6, mouse, in vivo, po, 30 mg/kg, Day 1, CFZ 30 mg/kg with CLR 200 mg/kg and RFB 60 mg/kg, oral): 2230 ng·h/mL
AUC(0-t) [6, 7]: 2150 ng·h/mL
AUC(0-t) [6, 8]: 5340 ng·h/mL
Cmax [6, 7]: 108 ng/mL
Cmax [6, 8]: 277 ng/mL
AUC(0-t) [6, 9]: 3690 ng·h/mL
AUC(0-t) [6, 10]: 9870 ng·h/mL
AUC(0-t) [6, 11]: 19900 ng·h/mL
Cmax [6, 9]: 181 ng/mL
Cmax ([6]; female, C57BL/6, mouse, plasma, po, 30 mg/kg, Day 1, CFZ 30 mg/kg with CLR 200 mg/kg and RFB 60 mg/kg, oral): 152 ng/mL
Cmax [6, 10]: 460 ng/mL
Cmax [6, 11]: 957 ng/mL
